Assays:
LS174T [1] = assay: Nude rat LS174T subcutaneous xenograft model, tumor volume
LS174T [2] = assay: SCID mouse LS174T intraperitoneal xenograft model, surviving period; assay type: in vivo; settings: LS174T i.p., CPT-11 10 mg/kg; for surviving period median (median survival time: MST): N26 antibody 5 mg/kg, 5-FU 50 mg/kg, caudal vein once a week x4, adjuvant group 24 days; for prolongation of surviving period in comparison with the adjuvant alone group: log-rank test, N26 5 mg/kg, 5-FU 50 mg/kg once a week x4
Experimental: (1) SCID mouse and colorectal cancer cell line
SCID mice (C.B-17/Icr-scid, female, 6-weeks old) were purchased from CLEA Japan Inc. and reared in an SPF (specific pathogen free) equipment.
A colorectal cancer-derived cell line LS174T (purchased from ATCC) was used as the tumor cell and cultured using RPMI 1640 medium (manufactured by GIBCO, Invitrogen) containing 10% FBS (manufactured by HyClone) and 1% penicillin-streptomycin (manufactured by GIBCO, Invitrogen).
A xenograft model was prepared by intraperitoneally transplanting the cultured LS174T cell into the SCID mouse at a dose of 1×10^7 cells/200 μl/head.
An anti-A33 human antibody (KRN330) (hereinafter referred to as N26 antibody) comprising the heavy chain variable region represented by SEQ ID NO:23 and the light chain variable region represented by SEQ ID NO:25 was used as an anti-A33 human antibody.
5-FU (5FU Injection 250 Kyowa) was obtained from Kyowa Hakko Kirin Co., Ltd. and CPT-11 (Campto (registered trademark) Injection or Irinotecan Hydrochloride Injection) was obtained from YAKULT HONSHA CO., LTD. In the control group, a dilution medium of the anti-A33 human antibody (10 mM of sodium L-glutamate, 262 mM of D-sorbitol and 0.05 mg/ml of polysorbate 80, pH 5.5) was used.
Administration schedules of agents are shown in FIG. (A)(a) and FIG. 1(B)(a), respectively. After transplanting the cultured LS174 cell into the abdominal cavity of SCID mice on day 0, their body weights were measured on the next day of the transplantation (on day 1) to divide them into six groups in such a manner that the average body weight of each group became equal (A, B, E and F groups=seven animals per group, C and D groups=six animals per group).
The grouping day was regarded as the initial administration day, and thereafter, 5 mg/kg of an anti-A33 human antibody, 10 mg/kg of CPT-11 (irinotecan) or 50 mg/kg of 5-FU was administered into the mouse caudal vein at a dose of 10 ml/kg, four times (on day 1, day 8, day 15 and day 22) at a frequency of once a week, and the surviving period was monitored. On the same day of the drug administration, an adjuvant was intravenously administered to the control group.
Survival curve of each administration group was plotted by the Kaplan-Meier method and the survival curves of each group were compared using log-rank test, with the results shown in FIG. 1(A)(b) and FIG. 1(A)(c) and FIG. 1(B)(b) and FIG. 1(B)(c). In this connection, though the results of FIG. 1(A)(b) and FIG. 1(A)(c) and FIG. 1(B)(b), and FIG. 1(B)(c) are separately shown, these were carried out in the same test, and results of the control group and the N26 antibody (5 mg/kg) group in FIG. 1(A)(b) and FIG. 1(A)(c) are identical to those in FIG. 1(B)(b) and FIG. 1(B)(c).

O=c1[nH]cc(F)c(=O)[nH]1 [5-FU, 5-fluorouracil]
antitumor effect (tumor volume), FIG. 2(a) (LS174T [1]; nude rat LS174T s.c., N26 5 mg/kg, 5-FU 100 mg/kg, i.v. day 0, 7, 14, 21): significant antitumor effect | surviving period median (median survival time: MST) (LS174T [2]): 24 days | prolongation of surviving period in comparison with the adjuvant alone group (LS174T [2]): prolongation of surviving period was not found

CCc1c2c(nc3ccc(OC(=O)N4CCC(N5CCCCC5)CC4)cc13)-c1cc3c(c(=O)n1C2)COC(=O)[C@]3(O)CC [CPT-11, irinotecan]
surviving period median (median survival time: MST) (LS174T [2]): 41 days | prolongation of surviving period in comparison with the adjuvant alone group (LS174T [2]): significant prolongation of surviving period

O=C1[O][Pt]2([NH][C@@H]3CCCC[C@H]3[NH]2)[O]C1=O [oxaliplatin]
antitumor effect (tumor volume), FIG. 2(b) (LS174T [1]; nude rat LS174T s.c., N26 5 mg/kg, oxaliplatin 15 mg/kg, i.v. day 0, 7, 14, 21): slight antitumor effect | body weight loss (LS174T [1]; nude rat, oxaliplatin 15 mg/kg administration group): significant body weight loss

— patent US20120020989A1, “METHODS OF TREATING COLORECTAL CANCER” (KYOWA HAKKO KIRIN CO., LTD., priority 2010, published 2012)
